Test systems include A549 NSCLC; COLO 205 colon; HCC-2998 colon; HOP-62 NSCLC; IGROV1 ovarian; M14 melanoma; MALME-3M melanoma; MOLT-4 leukemia; OVCAR-3 ovarian; OVCAR-8 ovarian; SK-OV-3 ovarian; SNB-75 CNS; U251 CNS; HOP-92 NSCLC; PC-3 prostate.
Holding throughout (assay): inhibition of tumour cell growth, NCI panel, 48 h

The structures appear in SMILES notation.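 Compound exposure: 48 hours, 5 concentrations, 96-well plates. TGI: total growth inhibition.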

Drawing on PubChem BioAssay (NCI), this text covers TGI for ten molecules.

As for `NC(=O)N1N=C2c3ccccc3CC[C@@H]2C1c1ccccc1` (some centres not stated), the TGI in the experiment on A549 NSCLC, in the experiment on COLO 205 colon, in the experiment with HCC-2998 colon, in the experiment with HOP-62 NSCLC, with IGROV1 ovarian and with M14 melanoma was greater than 100 µM in each case. Also, the TGI in the experiment with MALME-3M melanoma, in the experiment with MOLT-4 leukemia, in the experiment on OVCAR-3 ovarian, with OVCAR-8 ovarian, in the experiment on SK-OV-3 ovarian and in the experiment on SNB-75 CNS was greater than 100 µM throughout. Besides, the TGI in the experiment on U251 CNS was greater than 100 µM.
On to `COC(=O)C1=C(C(=O)OC)C2(OC(C)=O)c3ccccc3-c3ccccc3C12` (configuration not stated), for which the TGI in the experiment with A549 NSCLC amounted to 31.9 µM; in the experiment with COLO 205 colon, 3.68 µM; in the experiment with HCC-2998 colon it was 31 µM; in the experiment on HOP-62 NSCLC it was 48.3 µM; with HOP-92 NSCLC it was 3.67 µM; in the experiment with IGROV1 ovarian, 10.1 µM. Besides, the TGI was 9.47 µM in the experiment on M14 melanoma; 5.83 µM in the experiment on MALME-3M melanoma; 9.94 µM in the experiment with OVCAR-3 ovarian; 12.2 µM in the experiment on OVCAR-8 ovarian; 29.1 µM in the experiment with SK-OV-3 ovarian; 24.4 µM with SNB-75 CNS. The TGI in the experiment on U251 CNS worked out at 20.1 µM.
On to `N#Cc1c(-c2ccco2)cc(-c2ccc(NCc3nc4ccccc4[nH]3)cc2)nc1N`, for which the TGI with A549 NSCLC was 93.8 µM; in the experiment on COLO 205 colon, 47.9 µM; in the experiment on HCC-2998 colon it was 54.7 µM; in the experiment on HOP-62 NSCLC, 62.8 µM; with HOP-92 NSCLC, 67.4 µM; with IGROV1 ovarian it was greater than 100 µM. In addition, the TGI is 35.8 µM in the experiment on M14 melanoma; 51.5 µM in the experiment on MALME-3M melanoma; 39.7 µM with MOLT-4 leukemia; 41.8 µM in the experiment on OVCAR-3 ovarian; 46.3 µM with OVCAR-8 ovarian; greater than 100 µM in the experiment on SK-OV-3 ovarian. Besides, the TGI was 91.6 µM in the experiment with SNB-75 CNS and greater than 100 µM in the experiment on U251 CNS.
As for `COc1cccc(NC(=S)Nn2c(C)nc3ccccc3c2=O)c1`, the TGI in the experiment on A549 NSCLC, with COLO 205 colon, in the experiment on HOP-62 NSCLC, in the experiment on HOP-92 NSCLC, in the experiment on IGROV1 ovarian and with M14 melanoma was greater than 100 µM each time. The TGI with MALME-3M melanoma, in the experiment with MOLT-4 leukemia, with OVCAR-8 ovarian, in the experiment with SK-OV-3 ovarian, with SNB-75 CNS and with U251 CNS was greater than 100 µM throughout.
For `COc1ccc(C(O)/C(=N\NC(N)=S)c2nc3ccc([N+](=O)[O-])cc3[nH]c2=O)cc1OC` (configuration not stated), the TGI with A549 NSCLC, in the experiment on COLO 205 colon, in the experiment on HCC-2998 colon, in the experiment on HOP-62 NSCLC, in the experiment with HOP-92 NSCLC and in the experiment on IGROV1 ovarian was greater than 100 µM in each case. In addition, the TGI in the experiment with M14 melanoma, in the experiment on MALME-3M melanoma, with MOLT-4 leukemia, with OVCAR-8 ovarian, in the experiment with SK-OV-3 ovarian and in the experiment with SNB-75 CNS was greater than 100 µM throughout. The molecule further showed a TGI with U251 CNS greater than 100 µM.
As to `COc1ccc(C2C3C(=O)C=CC(=O)C3[C@@H]2C)cc1OC` (some centres not stated), the TGI in the experiment with A549 NSCLC, in the experiment on COLO 205 colon, with HCC-2998 colon, in the experiment with HOP-62 NSCLC, with HOP-92 NSCLC and with IGROV1 ovarian was greater than 100 µM in each case. The TGI was greater than 100 µM in the experiment with M14 melanoma; greater than 100 µM in the experiment with MALME-3M melanoma; 91.9 µM in the experiment on MOLT-4 leukemia; greater than 100 µM with OVCAR-3 ovarian; greater than 100 µM in the experiment on OVCAR-8 ovarian; greater than 100 µM in the experiment on SK-OV-3 ovarian. The TGI in the experiment on SNB-75 CNS and with U251 CNS was greater than 100 µM throughout.
Take `CSc1nc(-c2cc3c(c(SC)n2)CCCCC3)cc2c1CCCCC2`: the TGI in the experiment with A549 NSCLC is greater than 100 µM; with COLO 205 colon it was greater than 100 µM; with HCC-2998 colon it was greater than 100 µM; in the experiment on HOP-62 NSCLC, greater than 100 µM; in the experiment on IGROV1 ovarian, 85.9 µM; in the experiment on M14 melanoma it was greater than 100 µM. For the same molecule, the TGI in the experiment on MOLT-4 leukemia, in the experiment on OVCAR-3 ovarian, in the experiment with OVCAR-8 ovarian, with PC-3 prostate, in the experiment on SK-OV-3 ovarian and in the experiment with SNB-75 CNS was greater than 100 µM throughout. The molecule also had a TGI in the experiment on U251 CNS greater than 100 µM.
With `Cc1ccc(-c2c(C#N)c(S)n(NS(=O)(=O)c3ccc(C)cc3)c(=O)c2C#N)cc1`, the TGI in the experiment on A549 NSCLC is greater than 100 µM; in the experiment on COLO 205 colon, greater than 100 µM; in the experiment with HCC-2998 colon, 46.9 µM; with HOP-92 NSCLC, greater than 100 µM; in the experiment with IGROV1 ovarian it was 51.1 µM; in the experiment on M14 melanoma, 81.5 µM. For the same molecule, the TGI was 38.7 µM in the experiment with MALME-3M melanoma; greater than 100 µM with MOLT-4 leukemia; greater than 100 µM in the experiment with OVCAR-3 ovarian; 41.8 µM in the experiment on OVCAR-8 ovarian; greater than 100 µM with PC-3 prostate; greater than 100 µM in the experiment with SK-OV-3 ovarian. For the same molecule, the TGI in the experiment with SNB-75 CNS was determined as 37.4 µM; in the experiment on U251 CNS it was 37.7 µM.
As for `Clc1ccc(SCCSCCCCCCCCCCSCCSc2ccc(Cl)cc2)cc1`, the TGI in the experiment on A549 NSCLC, with COLO 205 colon, in the experiment on HCC-2998 colon, in the experiment on HOP-62 NSCLC, in the experiment on HOP-92 NSCLC and in the experiment with IGROV1 ovarian was greater than 100 µM each time. Moreover, the TGI in the experiment with MALME-3M melanoma, with MOLT-4 leukemia, in the experiment with OVCAR-3 ovarian, in the experiment on OVCAR-8 ovarian, in the experiment on SK-OV-3 ovarian and in the experiment with SNB-75 CNS was greater than 100 µM each time. Further, in the experiment on U251 CNS, the TGI is greater than 100 µM.
`CSC(C1c2ccccc2N(C)C2=NC(=O)N(C)C(=O)C21Cl)S(=O)(=O)c1ccc(C)cc1` (configuration not stated): the TGI with A549 NSCLC is greater than 100 µM; in the experiment on COLO 205 colon, greater than 100 µM; with HCC-2998 colon it was greater than 100 µM; in the experiment with HOP-62 NSCLC, greater than 100 µM; in the experiment on HOP-92 NSCLC, 59.9 µM; in the experiment on IGROV1 ovarian it was greater than 100 µM. In addition, the TGI with MALME-3M melanoma is greater than 100 µM; with MOLT-4 leukemia, 40.8 µM; in the experiment on OVCAR-3 ovarian, 43.3 µM; in the experiment with OVCAR-8 ovarian it was 46.3 µM; in the experiment with SK-OV-3 ovarian it was greater than 100 µM; in the experiment with SNB-75 CNS, 75.9 µM. The molecule further displayed a TGI with U251 CNS greater than 100 µM.
